{"source": "patent US9072712B2", "about": "“Synergistic antimicrobial preparations containing chlorite and hydrogen peroxide” (priority 1999, dated 2015)", "key": {"[1]": {"tested_on": "S. haemolyticus keratitis in rabbits", "test": "In-vivo antimicrobial efficacy in infectious S. haemolyticus keratitis (corneal CFU)", "procedure": "(§1) After 24 hours, all corneas were likewise infected, and the rabbits were divided randomly into three groups. The rabbits (five) of Group I then were treated with the chlorite-hydrogen peroxide formulation defined above as cleaning while wearing contact lenses (here termed “Bactericide”); the rabbits (five) of Group II were treated with commercially available 0.3% ofloxacin antibiotic ophthalmic solution; and the rabbits (two) of Group III were untreated to serve as a control. At 24 and 48 hours post infection, the rabbits underwent visual eye examination, photographic documentation and biomicroscopy. After 24 hours of treatment, three animals each from Groups I and II and one animal from Group III were sacrificed. The eyes were enucleated and an 8 mm disc of cornea was homogenized and plated onto growth media for microbial isolation and quantification. After 48 hours of treatment, the same procedure was followed for the remaining animals."}, "[2]": {"tested_on": "S. haemolyticus keratitis in rabbits", "test": "In-vivo clinical efficacy in infectious S. haemolyticus keratitis", "procedure": "as §1"}, "[3]": {"tested_on": "antibiotic-resistant strain of staphylococcus haemolyticus", "test": "In-vitro antimicrobial effect (log reduction)", "assay_type": "cell-based"}, "[4]": {"tested_on": "human eye", "details": "hydrogen peroxide without sodium chlorite (0.01 wt. %); cited from earlier work"}, "[5]": {"tested_on": "antibiotic-resistant strain of pseudomonas aeruginosa", "test": "In-vitro antimicrobial effect (log reduction)", "assay_type": "cell-based"}, "[6]": {"tested_on": "normal human eyes", "details": "in the presence of sodium chlorite (400 ppm)", "source_text": "Two drops of each formulation were then placed in the cul-de-sac of two normal human eyes. Upon instillation of the drops, the subjects were instructed to close their eyelids."}, "[7]": {"details": "24 hours after infection (before treatment)"}}, "note": "Entries after “also recorded” stand apart in the source; their conditions may differ.", "data": [{"compound": "CC1COc2c(N3CCN(C)CC3)c(F)cc3c(=O)c(C(=O)O)cn1c23", "note": "(stereo not drawn) [0.3% Ofloxacin, ofloxacin]", "values": [{"measurement": "bacteria isolated from 8 mm disc of cornea, Average", "setting": "[1]; 24 hours post treatment", "result": "13,000 CFU"}, {"measurement": "bacteria isolated from 8 mm disc of cornea, individual animals", "setting": "[1]; 24 hours post treatment", "result": "iii) 11,000 CFU; also recorded: i) 23,000 CFU; also recorded: ii) 5,000 CFU"}, {"measurement": "bacteria isolated from 8 mm disc of cornea, Average", "setting": "[1]; 48 hours post treatment", "result": "5,100 CFU"}, {"measurement": "bacteria isolated from 8 mm disc of cornea, individual animals", "setting": "[1]; 48 hours post treatment", "result": "i) 5,000 CFU; also recorded: ii) 5,200 CFU"}, {"measurement": "corneal edema score", "setting": "[2]; [7]", "result": "corneal edema (+2)"}, {"measurement": "hyperemia score", "setting": "[2]; [7]", "result": "hyperemia (+2)"}, {"measurement": "inflammation score", "setting": "[2]; [7]", "result": "inflammation(+2)"}, {"measurement": "corneal edema score", "setting": "[2]; 24 hours after treatment", "result": "corneal edema (+2)"}, {"measurement": "hyperemia score", "setting": "[2]; 24 hours after treatment", "result": "hyperemia (+2)"}, {"measurement": "inflammation score", "setting": "[2]; 24 hours after treatment", "result": "inflammation(+2)"}, {"measurement": "corneal edema score", "setting": "[2]; 48 hours after treatment", "result": "corneal edema (+1)"}, {"measurement": "hyperemia score", "setting": "[2]; 48 hours after treatment", "result": "hyperemia (+1)"}, {"measurement": "inflammation score", "setting": "[2]; 48 hours after treatment", "result": "inflammation(+1)"}]}, {"compound": "OO", "note": "[H202 alone, hydrogen peroxide]", "values": [{"measurement": "Log Reduction", "setting": "[3]; 200 ppm, 1 hour", "result": 0.20}, {"measurement": "Log Reduction", "setting": "[3]; 200 ppm, 2 hours", "result": 0.23}, {"measurement": "upper limit of human ocular tolerability", "setting": "[4]", "result": "about 100 ppm"}, {"measurement": "Log Reduction", "setting": "[5]; 200 ppm, 1 hour", "result": 0.01}, {"measurement": "Log Reduction", "setting": "[5]; 200 ppm, 2 hours", "result": 0.54}, {"measurement": "hydrogen peroxide levels very well tolerated by human eyes", "setting": "[6]", "result": "up to 500 ppm"}]}, {"compound": "sodium chlorite [NaClO2 alone]", "values": [{"measurement": "Log Reduction", "setting": "[3]; 400 ppm, 1 hour", "result": 0.11}, {"measurement": "Log Reduction", "setting": "[3]; 400 ppm, 2 hours", "result": 1.01}, {"measurement": "Log Reduction", "setting": "[5]; 400 ppm, 1 hour", "result": 0.351}, {"measurement": "Log Reduction", "setting": "[5]; 400 ppm, 1 hour, listed as sodium chlorite", "result": 0.35}, {"measurement": "Log Reduction", "setting": "[5]; 400 ppm, 2 hours", "result": 1.35}]}]}
